Experimental data taken from PubChem BioAssay AID192 (DTP/NCI, 2004).
Where “and” joins values, the source holds several entries; their conditions need not be identical. Equal entries are not always repeated. Inconclusive results and toxic doses are left out. Peptide text beside a SMILES is read from it.

System: BDF1 mice, B16 melanoma ip, median survival T/C
Experiment: NCI In Vivo Anticancer Drug Screen. Data for tumor model B16 Melanoma (intraperitoneal) in B6D2F1 (BDF1) mice
Conditions: endpoint: median survival time, higher = longer survival
Outline: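 Antitumor activity is assessed in mice bearing a transplanted tumor, with survival or tumor size compared against vehicle-dosed controls and expressed as T/C.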

[1] = dose: 50.0 mg/kg/injection, schedule: Q01DX009 (ip), vehicle: saline
[2] = dose: 100.0 mg/kg/injection, schedule: Q01DX009 (ip), vehicle: saline
[3] = dose: 200.0 mg/kg/injection, schedule: Q01DX009 (ip), vehicle: saline
[4] = dose: 400.0 mg/kg/injection, schedule: Q01DX009 (ip), vehicle: saline
[5] = dose: 100.0 mg/kg/injection, schedule: Q01DX009 (ip), vehicle: Klucel (hydroxypropylcellulose) (HPC)
[6] = dose: 200.0 mg/kg/injection, schedule: Q01DX009 (ip), vehicle: Klucel (hydroxypropylcellulose) (HPC)
[7] = dose: 400.0 mg/kg/injection, schedule: Q01DX009 (ip), vehicle: Klucel (hydroxypropylcellulose) (HPC)
[8] = dose: 12.5 mg/kg/injection, schedule: Q01DX009 (ip), vehicle: saline
[9] = dose: 12.5 mg/kg/injection, schedule: Q01DX009 (ip), vehicle: Klucel (hydroxypropylcellulose) (HPC)
[10] = dose: 25.0 mg/kg/injection, schedule: Q01DX009 (ip), vehicle: Klucel (hydroxypropylcellulose) (HPC)
[11] = dose: 100.0 mg/kg/injection, schedule: Q01DX009 (ip), vehicle: saline with Tween-80
[12] = dose: 200.0 mg/kg/injection, schedule: Q01DX009 (ip), vehicle: saline with Tween-80
[13] = dose: 0.05 mg/kg/injection, schedule: Q01DX009 (ip), vehicle: saline
[14] = dose: 0.1 mg/kg/injection, schedule: Q01DX009 (ip), vehicle: saline
[15] = dose: 12.5 mg/kg/injection, schedule: Q01DX009 (ip), vehicle: saline with Tween-80
[16] = dose: 25.0 mg/kg/injection, schedule: Q01DX009 (ip), vehicle: saline with Tween-80
[17] = dose: 50.0 mg/kg/injection, schedule: Q01DX009 (ip), vehicle: saline with Tween-80
[18] = dose: 50.0 mg/kg/injection, schedule: Q01DX009 (ip), vehicle: Klucel (hydroxypropylcellulose) (HPC)

## C=CCOCC(O)CN(C)CCCC (centres undefined)
dose: 50.0 mg/kg/injection, schedule: Q04DX003 (ip), vehicle: saline
  T/C: 108 % of control
dose: 100.0 mg/kg/injection, schedule: Q04DX003 (ip), vehicle: saline
  T/C: 108 % of control

## NC(CCC(=O)O)C(=O)NC(CCC(=O)O)C(=O)O (stereo not drawn) (H-Glu-Glu-OH; configuration not given here)
[1]
  T/C: 97 % of control
[2]
  T/C: 96 % of control
[3]
  T/C: 93 % of control
[4]
  T/C: 91 % of control

## Cn1cnc2c1c(=O)[nH]c(=O)n2C
[5]
  T/C: 109 % of control
[6]
  T/C: 111 % of control
[7]
  T/C: 109 % of control

## CC(C)C[NH-].CC(C)C[NH-].O.O.[Cl][Pt+2][Cl]
dose: 10.0 mg/kg/injection, schedule: Q01DX009 (ip), vehicle: other
  T/C: 151 % of control
dose: 30.0 mg/kg/injection, schedule: Q01DX009 (ip), vehicle: other
  T/C: 160 % of control
dose: 40.0 mg/kg/injection, schedule: Q01DX009 (ip), vehicle: other
  T/C: 214 % of control
dose: 50.0 mg/kg/injection, schedule: Q01DX009 (ip), vehicle: other
  T/C: 169 % of control

## O=C(O)CCNCc1ccccc1
[8]
  T/C: 111 % of control
[1]
  T/C: 102 % of control
[2]
  T/C: 106 % of control
[3]
  T/C: 111 % of control

## CCC[CH2][Ge]([Cl])([Cl])[CH2]CCC
[9]
  T/C: 100 % of control
[10]
  T/C: 90 % of control

## Nc1n[n+](-c2ccc(Cl)cc2)no1
dose: 3.12 mg/kg/injection, schedule: Q01DX009 (ip), vehicle: water
  T/C: 102 % of control
dose: 6.25 mg/kg/injection, schedule: Q01DX009 (ip), vehicle: water
  T/C: 107 % of control
dose: 12.5 mg/kg/injection, schedule: Q01DX009 (ip), vehicle: water
  T/C: 109 % of control
dose: 50.0 mg/kg/injection, schedule: Q01DX009 (ip), vehicle: water
  T/C: 117 % of control

## CCC[CH2][Sn]([CH2]CCC)([CH2]CCC)[O]C(=O)CC[S][Sn]([CH2]CCC)([CH2]CCC)[CH2]CCC
dose: 1.0 mg/kg/injection, schedule: Q01DX009 (ip), vehicle: saline with Tween-80
  T/C: 92 % of control
dose: 2.0 mg/kg/injection, schedule: Q01DX009 (ip), vehicle: saline with Tween-80
  T/C: 95 % of control

## C=CCNC(=S)Nc1cc(Cl)ccc1OC
[5]
  T/C: 93 % of control
[6]
  T/C: 93 % of control
[7]
  T/C: 93 % of control

## COc1ccc(NC(=S)Nc2ccccn2)cc1
[5]
  T/C: 107 % of control
[11]
  T/C: 100 % of control
[6]
  T/C: 100 % of control
[12]
  T/C: 100 % of control
[7]
  T/C: 92 % of control

## COC(C/C=C\C=C\CC/C=C/CC(C)/C=C/C(=C\C(=O)O)CC(=O)O)/C(C)=C\C=C(/C)C(=O)O (centres undefined)
[13]
  T/C: 108 % of control
[14]
  T/C: 107 % of control
dose: 0.2 mg/kg/injection, schedule: Q01DX009 (ip), vehicle: saline
  T/C: 107 % of control
dose: 0.4 mg/kg/injection, schedule: Q01DX009 (ip), vehicle: saline
  T/C: 94 % of control

## CC(N)Cc1ccc(O)cc1 (centres undefined)
[8]
  T/C: 102 % of control
dose: 25.0 mg/kg/injection, schedule: Q01DX009 (ip), vehicle: saline
  T/C: 110 % of control
[1]
  T/C: 100 % of control
[2]
  T/C: 105 % of control
[3]
  T/C: 100 % of control

## ClCCN=Cc1ccc(Cl)cc1
[11]
  T/C: 98 % of control
[12]
  T/C: 95 % of control
dose: 400.0 mg/kg/injection, schedule: Q01DX009 (ip), vehicle: saline with Tween-80
  T/C: 93 % of control

## CN=C(N)N/N=C(\C)c1ccc2c(c1)Cc1ccccc1-2
[15]
  T/C: 110 % of control
[16]
  T/C: 115 % of control
[17]
  T/C: 120 % of control
[11]
  T/C: 112 % of control

## CCCC(=O)c1ccc(OC)c(OC)c1
[18]
  T/C: 86 % of control
[5]
  T/C: 93 % of control
[6]
  T/C: 96 % of control

## Nc1nc(N=Nc2ccc(O)cc2)cc(=O)[nH]1
dose: 100.0 mg/kg/injection, schedule: Q01DX009 (ip), vehicle: other
  T/C: 109 % of control
dose: 200.0 mg/kg/injection, schedule: Q01DX009 (ip), vehicle: other
  T/C: 105 % of control
dose: 400.0 mg/kg/injection, schedule: Q01DX009 (ip), vehicle: other
  T/C: 87 % of control

## Cn1cnc([N+](=O)[O-])c1Sc1nc(N)nc2c1ncn2C1OC(CO)C(O)C1O (centres undefined)
dose: 12.5 mg/kg/injection, schedule: Q01DX009 (ip), vehicle: suspension in saline
  T/C: 91 % of control

## O=[N+]([O-])c1cc(Br)cc2c1nc(Cl)c1ccccc12
[17]
  T/C: 94 % of control
[11]
  T/C: 88 % of control

## CCCCCC[N+](CCCCCC)(CCCCCC)CCCCCC
dose: 0.75 mg/kg/injection, schedule: Q01DX009 (ip), vehicle: Klucel (hydroxypropylcellulose) (HPC)
  T/C: 88 % of control
dose: 1.5 mg/kg/injection, schedule: Q01DX009 (ip), vehicle: Klucel (hydroxypropylcellulose) (HPC)
  T/C: 90 % of control

## CCCCN(CCCC)CCNc1ccc(Cl)c2oc3cc(C)ccc3c(=O)c12
[15]
  T/C: 100 % of control
[16]
  T/C: 93 % of control
dose: 25.0 mg/kg/injection, schedule: Q04DX003 (ip), vehicle: saline with Tween-80
  T/C: 105 % of control
dose: 50.0 mg/kg/injection, schedule: Q04DX003 (ip), vehicle: saline with Tween-80
  T/C: 92 % of control
dose: 100.0 mg/kg/injection, schedule: Q04DX003 (ip), vehicle: saline with Tween-80
  T/C: 86 % of control

## Cc1ccc(NC(=S)NC(Cc2ccccc2)c2ccccc2)c(C)c1 (centres undefined)
[9]
  T/C: 111 % of control
[10]
  T/C: 109 % of control
[18]
  T/C: 102 % of control
dose: 75.0 mg/kg/injection, schedule: Q04DX003 (ip), vehicle: Klucel (hydroxypropylcellulose) (HPC)
  T/C: 94 % of control
[5]
  T/C: 88 % of control
dose: 150.0 mg/kg/injection, schedule: Q04DX003 (ip), vehicle: Klucel (hydroxypropylcellulose) (HPC)
  T/C: 94 % of control
dose: 300.0 mg/kg/injection, schedule: Q04DX003 (ip), vehicle: Klucel (hydroxypropylcellulose) (HPC)
  T/C: 102 % of control

## CN1C(=O)CN=C(c2ccccc2)c2cc(Cl)ccc21
dose: 0.02 mg/kg/injection, schedule: Q01DX009 (ip), vehicle: Klucel (hydroxypropylcellulose) (HPC)
  T/C: 95 % of control
dose: 0.03 mg/kg/injection, schedule: Q01DX009 (ip), vehicle: saline
  T/C: 100 % of control
dose: 0.04 mg/kg/injection, schedule: Q01DX009 (ip), vehicle: Klucel (hydroxypropylcellulose) (HPC)
  T/C: 233 % of control
[13]
  T/C: 97 % of control
dose: 0.09 mg/kg/injection, schedule: Q01DX009 (ip), vehicle: Klucel (hydroxypropylcellulose) (HPC)
  T/C: 104 % of control
[14]
  T/C: 91 % of control
dose: 0.19 mg/kg/injection, schedule: Q01DX009 (ip), vehicle: Klucel (hydroxypropylcellulose) (HPC)
  T/C: 109 % of control
dose: 0.39 mg/kg/injection, schedule: Q01DX009 (ip), vehicle: Klucel (hydroxypropylcellulose) (HPC)
  T/C: 91 % of control and 105 % of control
dose: 5.0 micrograms/kg/injection, schedule: Q01DX009 (ip), vehicle: Klucel (hydroxypropylcellulose) (HPC)
  T/C: 94 % of control
dose: 10.0 micrograms/kg/injection, schedule: Q01DX009 (ip), vehicle: Klucel (hydroxypropylcellulose) (HPC)
  T/C: 93 % of control
dose: 20.0 micrograms/kg/injection, schedule: Q01DX009 (ip), vehicle: Klucel (hydroxypropylcellulose) (HPC)
  T/C: 86 % of control
dose: 40.0 micrograms/kg/injection, schedule: Q01DX009 (ip), vehicle: Klucel (hydroxypropylcellulose) (HPC)
  T/C: 94 % of control
dose: 90.0 micrograms/kg/injection, schedule: Q01DX009 (ip), vehicle: Klucel (hydroxypropylcellulose) (HPC)
  T/C: 92 % of control

## CC(=O)OCc1cccnc1
[1]
  T/C: 97 % of control
[2]
  T/C: 101 % of control
[3]
  T/C: 106 % of control
[4]
  T/C: 107 % of control

## Cc1ccc(NC(=S)NN)cc1C
[10]
  T/C: 100 % of control
[18]
  T/C: 96 % of control
[5]
  T/C: 96 % of control

## CCNc1nc(Cl)nc(NC(C)C)n1
[17]
  T/C: 100 % of control
[11]
  T/C: 102 % of control
[12]
  T/C: 104 % of control

## COC1C(C)OC(OC2CC(C)(O)Cc3cc4c(c(O)c32)C(=O)c2c(O)cc3c(c2C4=O)OC2OC3(C)C(O)C(N(C)C)C2O)C(OC)C1(C)OC (centres undefined)
dose: 0.16 mg/kg/injection, schedule: Q01DX009 (ip), vehicle: other
  T/C: 95 % of control
dose: 0.63 mg/kg/injection, schedule: Q01DX009 (ip), vehicle: other
  T/C: 159 % of control
dose: 5.4 mg/kg/injection, schedule: Q04DX003 (ip), vehicle: lactic acid
  T/C: 195 % of control
dose: 9.0 mg/kg/injection, schedule: Q04DX003 (ip), vehicle: lactic acid
  T/C: 171 % of control
